System: Peripheral blood mononuclear cells (PBMC)
Test: FTIR monitoring of lymphocyte activation
Format: cell-based, human
Method: Peripheral blood mononuclear cells (PBMC) from two volunteers, isolated using gradient mixtures were twice washed in 0.9% saline and centrifuged. The resulting pellets were resuspended in 1 ml of saline. One half of each sample was activated with phorbol myristate acetate (PMA) and the other half used as a control. After 15 minutes the four portions were desiccated and transferred to a infrared cell for FTIR microanalysis. For each portion six spectra were recorded.

[1] = PMA activated vs non-activated lymphocytes, 15 minutes

With `CCCCCCCCCCCCCC(=O)O[C@@H]1[C@@H](C)[C@@]2(O)[C@@H](C=C(CO)C[C@]3(O)C(=O)C(C)=C[C@@H]23)[C@@H]2C(C)(C)[C@]12OC(C)=O` [PMA, phorbol myristate acetate] the “FTIR spectra of activated vs non-activated lymphocytes” value (PBMC from two volunteers, PMA activation 15 minutes, desiccated, FTIR microanalysis) was “marked differences”, the “amide II band” value (PMA activated lymphocytes, 15 minutes) was “multitude of shoulder peaks” and the “C—O stretch of fatty acyl groups (1400 cm-1) and C—O stretches of glycogen bands at 1058 and 1038 cm-1” value [1] was “much more intense”. The “amide I β-pleated sheet component band at 1634 cm-1” value [1] was “increase” and the “α-helical amide I band” value [1] was “reduction”.

From patent US6642012B1, “Spectroscopic determination of characteristic of biological material” (priority 1996, dated 2003)
